According to ChEMBL document CHEMBL1201862, “PubChem BioAssay data set” (2004):
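Protocol summary: plate cells (96-well), add compound at 5 concentrations, incubate 48 h, interpolate endpoints linearly. The concentration for 50% growth inhibition is given as GI50.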 The source made the active and inactive calls. No stated cut-off is given here; in the data, active = GI50 up to about 1.1 µM and inactive = higher.

Assays:
Assay in all cases: DTP human tumour cell line panel, 48 h
SW-620 = tested on: SW-620
M14 = tested on: M14
SR = tested on: SR
NCI-H226 = tested on: NCI-H226
CAKI-1 = tested on: CAKI-1
ACHN = tested on: ACHN
TK-10 = tested on: TK-10
NCI/ADR-RES = tested on: NCI/ADR-RES
UO-31 = tested on: UO-31
SF-539 = tested on: SF-539
OVCAR-5 = tested on: OVCAR-5
HT-29 = tested on: HT-29
UACC-257 = tested on: UACC-257
HCT-116 = tested on: HCT-116
SNB-19 = tested on: SNB-19
T47D = tested on: T47D
SF-295 = tested on: SF-295
SK-MEL-5 = tested on: SK-MEL-5
PC-3 = tested on: PC-3
DU-145 = tested on: DU-145
LOX IMVI = tested on: LOX IMVI
RPMI-8226 = tested on: RPMI-8226
BT-549 = tested on: BT-549
EKVX = tested on: EKVX
KM12 = tested on: KM12
COLO 205 = tested on: COLO 205
SK-OV-3 = tested on: SK-OV-3
SN12C = tested on: SN12C
OVCAR-8 = tested on: OVCAR-8
MDA-MB-231 = tested on: MDA-MB-231
OVCAR-3 = tested on: OVCAR-3
SK-MEL-2 = tested on: SK-MEL-2
A498 = tested on: A498
RXF 393 = tested on: RXF 393
HOP-92 = tested on: HOP-92
Hs-578T = tested on: Hs-578T
786-0 = tested on: 786-0
NCI-H522 = tested on: NCI-H522
IGROV-1 = tested on: IGROV-1
K562 = tested on: K562
NCI-H23 = tested on: NCI-H23
HOP-62 = tested on: HOP-62
U-251 = tested on: U-251
MCF7 = tested on: MCF7
MDA-N = tested on: MDA-N
SK-MEL-28 = tested on: SK-MEL-28
OVCAR-4 = tested on: OVCAR-4
SF-268 = tested on: SF-268
UACC-62 = tested on: UACC-62
HL-60 = tested on: HL-60
NCI-H460 = tested on: NCI-H460
A549 = tested on: A549
MOLT-4 = tested on: MOLT-4
Malme-3M = tested on: Malme-3M
HCT-15 = tested on: HCT-15
SNB-75 = tested on: SNB-75
HCC 2998 = tested on: HCC 2998
CCRF-CEM = tested on: CCRF-CEM
MDA-MB-435 = tested on: MDA-MB-435

For `NC(C(=O)O)C(N)C(=O)O` (configuration not stated), the GI50 (SW-620) was > 100 µM (inactive), the GI50 (M14) was > 100 µM (inactive) and the GI50 (SR) was > 100 µM (inactive). For the same compound, the GI50 (NCI-H226) was > 100 µM (inactive), the GI50 (CAKI-1) was > 100 µM (inactive) and the GI50 (ACHN) was > 100 µM (inactive). The GI50 (TK-10) was > 100 µM (inactive), the GI50 (NCI/ADR-RES) was > 100 µM (inactive) and the GI50 (UO-31) was > 100 µM (inactive). For the same compound, the GI50 (SF-539) was > 100 µM (inactive), the GI50 (OVCAR-5) was > 100 µM (inactive) and the GI50 (HT-29) was > 100 µM (inactive). For the same compound, the GI50 (UACC-257) was > 100 µM (inactive), the GI50 (HCT-116) was > 100 µM (inactive) and the GI50 (SNB-19) was > 100 µM (inactive). For the same compound, the GI50 (T47D) was > 100 µM (inactive), the GI50 (SF-295) was > 100 µM (inactive) and the GI50 (SK-MEL-5) was > 100 µM (inactive). For the same compound, the GI50 (PC-3) was > 100 µM (inactive), the GI50 (DU-145) was > 100 µM (inactive) and the GI50 (LOX IMVI) was > 100 µM (inactive). The GI50 (RPMI-8226) was > 100 µM (inactive), the GI50 (BT-549) was > 100 µM (inactive) and the GI50 (EKVX) was > 100 µM (inactive). For the same compound, the GI50 (KM12) was > 100 µM (inactive), the GI50 (COLO 205) was > 100 µM (inactive) and the GI50 (SK-OV-3) was > 100 µM (inactive). The GI50 (SN12C) was > 100 µM (inactive), the GI50 (OVCAR-8) was > 100 µM (inactive) and the GI50 (MDA-MB-231) was > 100 µM (inactive). For the same compound, the GI50 (OVCAR-3) was > 100 µM (inactive), the GI50 (SK-MEL-2) was > 100 µM (inactive) and the GI50 (A498) was > 100 µM (inactive). The GI50 (RXF 393) was > 100 µM (inactive), the GI50 (HOP-92) was > 100 µM (inactive) and the GI50 (Hs-578T) was > 100 µM (inactive). For the same compound, the GI50 (786-0) was > 100 µM (inactive), the GI50 (NCI-H522) was > 100 µM (inactive) and the GI50 (IGROV-1) was > 100 µM (inactive). The GI50 (K562) was > 100 µM (inactive), the GI50 (NCI-H23) was > 100 µM (inactive) and the GI50 (HOP-62) was > 100 µM (inactive). The GI50 (U-251) was > 100 µM (inactive), the GI50 (MCF7) was > 100 µM (inactive) and the GI50 (MDA-N) was > 100 µM (inactive). The GI50 (SK-MEL-28) was > 100 µM (inactive), the GI50 (OVCAR-4) was > 100 µM (inactive) and the GI50 (SF-268) was > 100 µM (inactive). The GI50 (UACC-62) was > 100 µM (inactive), the GI50 (HL-60) was > 100 µM (inactive) and the GI50 (NCI-H460) was > 100 µM (inactive). The GI50 (A549) was > 100 µM (inactive), the GI50 (MOLT-4) was > 100 µM (inactive) and the GI50 (Malme-3M) was > 100 µM (inactive). The GI50 (HCT-15) was > 100 µM.
In the case of `C[C@@H](NC(C#N)c1ccco1)c1ccccc1` (some centres not stated), the GI50 (SW-620) is reported as > 100 µM (inactive), the GI50 (M14) is reported as > 100 µM (inactive) and the GI50 (SNB-75) is reported as > 100 µM (inactive). For the same compound, the GI50 (HCC 2998) was 32.7 µM (inactive), the GI50 (SR) was > 100 µM (inactive) and the GI50 (NCI-H226) was > 100 µM (inactive). For the same compound, the GI50 (ACHN) was > 100 µM (inactive), the GI50 (TK-10) was > 100 µM (inactive) and the GI50 (NCI/ADR-RES) was > 100 µM (inactive). The GI50 (UO-31) was > 100 µM (inactive), the GI50 (SF-539) was > 100 µM (inactive) and the GI50 (OVCAR-5) was > 100 µM (inactive). The GI50 (HT-29) was > 100 µM (inactive), the GI50 (UACC-257) was > 100 µM (inactive) and the GI50 (HCT-116) was > 100 µM (inactive). For the same compound, the GI50 (SNB-19) was > 100 µM (inactive), the GI50 (T47D) was > 100 µM (inactive) and the GI50 (SF-295) was > 100 µM (inactive). For the same compound, the GI50 (SK-MEL-5) was > 100 µM (inactive), the GI50 (PC-3) was > 100 µM (inactive) and the GI50 (DU-145) was > 100 µM (inactive). For the same compound, the GI50 (RPMI-8226) was > 100 µM (inactive), the GI50 (BT-549) was > 100 µM (inactive) and the GI50 (EKVX) was > 100 µM (inactive). For the same compound, the GI50 (KM12) was > 100 µM (inactive), the GI50 (SK-OV-3) was > 100 µM (inactive) and the GI50 (SN12C) was > 100 µM (inactive). For the same compound, the GI50 (OVCAR-8) was > 100 µM (inactive), the GI50 (OVCAR-3) was > 100 µM (inactive) and the GI50 (A498) was > 100 µM (inactive). For the same compound, the GI50 (RXF 393) was > 100 µM (inactive), the GI50 (HOP-92) was 30.4 µM (inactive) and the GI50 (Hs-578T) was > 100 µM (inactive). For the same compound, the GI50 (786-0) was > 100 µM (inactive), the GI50 (IGROV-1) was > 100 µM (inactive) and the GI50 (K562) was > 100 µM (inactive). The GI50 (NCI-H23) was > 100 µM (inactive), the GI50 (HOP-62) was > 100 µM (inactive) and the GI50 (U-251) was > 100 µM (inactive). For the same compound, the GI50 (MCF7) was > 100 µM (inactive), the GI50 (MDA-N) was > 100 µM (inactive) and the GI50 (SK-MEL-28) was > 100 µM (inactive). The GI50 (SF-268) was > 100 µM (inactive), the GI50 (UACC-62) was > 100 µM (inactive) and the GI50 (HL-60) was > 100 µM (inactive). The GI50 (NCI-H460) was > 100 µM (inactive), the GI50 (A549) was > 100 µM (inactive) and the GI50 (CCRF-CEM) was > 100 µM (inactive). The GI50 (MOLT-4) was > 100 µM (inactive), the GI50 (Malme-3M) was > 100 µM (inactive) and the GI50 (MDA-MB-435) was > 100 µM (inactive). The GI50 (HCT-15) was > 100 µM.
